Experimental data as given in patent US7915292B2, “Antibacterial quinoline derivatives” (Janssen Pharmaceutica NV, priority 2005, dated 2011).
In brackets after ≈: the same amount, converted by molar mass. Where a name gives a salt, the structure may show the parent alone.

Columns and labels:
[1] = test system: Mycobacterium tuberculosis (strain H37RV); assay: In-vitro method for testing compounds against M. tuberculosis (resazurin growth inhibition); type: cell-based; settings: 7 days incubation; for IC50: Mycobacterium tuberculosis, 168 h, read-out: M. tuberculosis pIC50 (converted)
M. Smegmatis ATCC607 = assay: In-vitro anti-bacterial activity against strain M. smegmatis ATCC607 (Alamar Blue growth inhibition); type: cell-based; settings: 48 hours incubation; for IC50: Mycolicibacterium smegmatis, read-out: M. smegmatis pIC50 (converted)
Protocol: Serial five-fold dilutions (45 μl in 180 μl) were made directly in the microtiter plates from column 2 to 11 using a customised robot system (Zymark Corp., Hopkinton, Mass.). Pipette tips were changed after every 3 dilutions to minimize pipetting errors with high hydrophobic compounds. Untreated control samples with (column 1) and without (column 12) inoculum were included in each microtiter plate. Approximately 250 CFU per well of bacteria inoculum, in a volume of 100 μl in 2.8× Mueller-Hinton broth medium, was added to the rows […]. The same volume of broth medium without inoculum was added to column 12 in row A to H. The cultures were incubated at 37° C. for 48 hours in a humidified 5% CO2 atmosphere (incubator with open air valve and continuous ventilation). At the end of incubation, two days after inoculation, the bacterial growth was quantitated fluorometrically. Therefore Alamar Blue (10×) was added to all wells in a volume of 20 μl and plates were incubated for another 2 hours at […] The fluorescence was read in a computer-controlled fluorometer (Cytofluor, Biosearch) at an excitation wavelength of 530 nm and an emission wavelength of 590 nm (gain 30). The percentage growth inhibition achieved by the compounds was calculated according to standard methods and expressed as pIC50 values.

ECO 25922 = assay: Microtitre plate assay, IC90 determination, ECO 25922; type: cell-based, E. coli; settings: 90% inhibitory concentration for bacterial growth, strain ECO 25922, 24 hours at 37° C.; for IC90: Escherichia coli, read-out: IC90 (μg/ml) ECO 25922
Protocol: Stocks (0.5 ml/tube) were stored at -70° C. until use. Bacteria titrations were performed in microtiter plates to detect the TCID50, in which the TCID50 represents the dilution that gives rise to bacterial growth in 50% of inoculated cultures. In general, an inoculum level of approximately 100 TCID50 was used for susceptibility testing. […] Serial five-fold dilutions (45 μl in 180 μl) were made directly in the microtiter plates from column 2 to reach column 11. Untreated control samples with (column 1) and without (column 12) inoculum were included in each microtiter plate. Depending on the bacteria type, approximately 10 to 60 CFU per well of bacteria inoculum (100 TCID50), in a volume of 100 μl in 2.8× Mueller-Hinton broth medium, was added to the rows […]. The same volume of broth medium without inoculum was added to column 12 in row A to H. The cultures were incubated at 37° C. for 24 hours under a normal atmosphere (incubator with open air valve and continuous ventilation). At the end of incubation, one day after inoculation, the bacterial growth was quantitated fluorometrically. Therefore resazurin (0.6 mg/ml) was added in a volume of 20 μl to all wells 3 hours after inoculation, and the plates were re-incubated overnight. A change in colour from blue to pink indicated the growth of bacteria. The fluorescence was read in a computer-controlled fluorometer (Cytofluor Biosearch) at an excitation wavelength of 530 nm and an emission wavelength of 590 nm. The % growth inhibition achieved by the compounds was calculated according to standard methods. The IC90 (expressed in μg/ml) was defined as the 90% inhibitory concentration for bacterial growth.

SMILES	M. smegmatis pIC50 (M. Smegmatis ATCC607)	IC90 (μg/ml) ECO 25922 (ECO 25922) [µg/mL]	M. tuberculosis pIC50 [1]	other results
Cc1ccc2nc(-c3ccccc3)c(C(c3ccccc3)N(CC(=O)N(C)C)Cc3ccccc3)cc2c1 (centres unmarked) [Compound 45]				IC50 [1]: 10000 nM; IC50 (M. Smegmatis ATCC607): 1000 nM
COc1nc2ccc(Br)cc2cc1C(c1ccccc1)N(CC(=O)N1CCOCC1)Cc1ccoc1 (centres unmarked) [Compound 102]	5.8	13.8 (≈ 25.1 µM)		
COc1nc2ccc(Br)cc2cc1C(c1ccccc1)N(CC(=O)N1CCCC1)Cc1ccccc1 (centres unmarked) [Compound 103]	4.5	13.7 (≈ 25.2 µM)		
CCOC(=O)CN(C)C(c1ccccc1)c1cc2cc(Br)ccc2nc1OC (centres unmarked) [Compound 131]				IC50 [1]: 31600 nM; IC50 (M. Smegmatis ATCC607): 1000 nM
CNC(=O)CN(Cc1ccccc1)C(c1ccccc1)c1cc2cc(Br)ccc2nc1-c1ccccc1 (centres unmarked) [Compound 52]	5.8	13.8 (≈ 25.1 µM)		
Cc1ccc2nc(-c3ccccc3)c(C(c3ccccc3)N(CC(=O)N3CCN(c4ccccn4)CC3)Cc3ccccc3)cc2c1 (centres unmarked) [Compound 75]			5.4	
Cc1ccc2nc(-c3ccccc3)c(C(c3ccccc3)N(CC(=O)N3CCCC3)Cc3ccccc3)cc2c1 (centres unmarked) [Compound 64]	6.5		5.0	
Cc1ccc2nc(-c3ccccc3)c(C(c3ccccc3)N(CC(=O)N3CCSC3)Cc3ccccc3)cc2c1 (centres unmarked) [Compound 65]	6.5	13.7 (≈ 25.2 µM)	5.0	
CCOC(=O)CN(Cc1ccccc1)C(c1ccccc1)c1cc2cc(Br)ccc2nc1-c1ccccc1 (centres unmarked) [Compound 146]				IC50 [1]: 50100 nM; IC50 (M. Smegmatis ATCC607): 501 nM; IC90 (ECO 25922): 14.2 µg/mL (≈ 25.1 µM)
CCCN(CCC)C(=O)CN(Cc1ccccc1)C(c1ccccc1)c1cc2cc(C)ccc2nc1-c1ccccc1 (centres unmarked) [Compound 49]	5.2		4.6	
Cc1ccc2nc(-c3ccccc3)c(C(c3ccccc3)N(CC(=O)N3CC(C)OC(C)C3)Cc3ccccc3)cc2c1 (centres unmarked) [Compound 71]	5.7		5.1	
Cc1ccc2nc(-c3ccccc3)c(C(c3ccccc3)N(CC(=O)N3CCN(Cc4ccccc4)CC3)Cc3ccccc3)cc2c1 (centres unmarked) [Compound 78]			6.05	
CCOC(=O)CN(C(C)C)C(c1ccccc1)c1cc2cc(Br)ccc2nc1OC (centres unmarked) [Compound 133]	5.7		4.4	
Cc1ccc2nc(-c3ccccc3)c(C(c3ccccc3)N(CC(=O)N3CCN(c4ncccn4)CC3)Cc3ccccc3)cc2c1 (centres unmarked) [Compound 76]			5.0	
Cc1ccc2nc(-c3ccccc3)c(C(c3ccccc3)N(C)CCN(C)C)cc2c1 (centres unmarked) (as salt: oxalate) [Compound 37]				melting point: 142 °C
COc1nc2ccc(Br)cc2c(Cl)c1C(c1ccccc1)N(C)CC(=O)N1CCSCC1 (centres unmarked) [Compound 97]	4.4		4.2	
Cc1ccc2nc(-c3ccccc3)c(C(c3ccccc3)N(CC(=O)N(C)CC#N)Cc3ccccc3)cc2c1 (centres unmarked) [Compound 46]	5.8		5.0	
COc1nc2ccc(Br)cc2cc1C(c1ccccc1)N(CC(=O)N1CCSCC1)Cc1ccccc1 (centres unmarked) [Compound 106]	6.4	14.5 (≈ 25.1 µM)	<4	
Cc1ccc2nc(-c3ccccc3)c(C(c3ccccc3)N(CC(=O)N3CCC(Cc4ccccc4)CC3)Cc3ccccc3)cc2c1 (centres unmarked) [Compound 79]			5.7	
Cc1ccc2nc(-c3ccccc3)c(C(c3ccccc3)N(CC(=O)N3CCc4ccccc4C3)Cc3ccccc3)cc2c1 (centres unmarked) [Compound 74]	5.2	14.8 (≈ 25.2 µM)	5.0	

SMILES	M. smegmatis pIC50 (M. Smegmatis ATCC607)	IC90 (μg/ml) ECO 25922 (ECO 25922) [µg/mL]	M. tuberculosis pIC50 [1]	other results
COc1nc2ccc(Br)cc2cc1C(c1ccccc1)N(CCC(=O)N1CCOCC1)Cc1ccccc1 (centres unmarked) [Compound 120]	5.6	14.4 (≈ 25.1 µM)		
COc1nc2ccc(Br)cc2cc1C(c1ccccc1)N(C)CC(=O)N1CCSCC1 (centres unmarked) [Compound 88]	4.9		4.05	
Cc1ccc2nc(-c3ccccc3)c(C(c3ccccc3)N(CC(=O)N3CCOCC3)Cc3ccccc3)cc2c1 (centres unmarked) [Compound 68]	6.5		5.1	
Cc1ccc2nc(-c3ccccc3)c(C(c3ccccc3)N(CC(=O)N3Cc4ccccc4C3)Cc3ccccc3)cc2c1 (centres unmarked) [Compound 73]			4.5	
COc1nc2ccc(C#N)cc2cc1C(c1ccccc1)N(CC(=O)N1CCOCC1)Cc1ccccc1 (centres unmarked) [Compound 124]	5.05	12.7 (≈ 25.1 µM)		
COc1nc2ccc(Br)cc2cc1C(c1ccccc1)N(CC(=O)N1CCOCC1)Cc1ccccc1 (centres unmarked) [Compound 105]	6.0	14.1 (≈ 25.2 µM)		
COc1nc2ccc(Br)cc2cc1C(c1ccccc1)N(CC(=O)N1CCOCC1)Cc1cccnc1 (centres unmarked) [Compound 111]	5.8	14.1 (≈ 25.1 µM)		
COc1cccc(CN(CCN(C)C)C(c2ccccc2)c2cc3cc(Br)ccc3nc2OC)c1 (centres unmarked) (as salt: oxalate) [Compound 20]				melting point: 142 °C
O=C(CN(Cc1ccccc1)C(c1ccccc1)c1cc2ccccc2nc1-c1ccccc1)N1CCCC1 (centres unmarked) [Compound 55]	6.0	12.9 (≈ 25.2 µM)	4.3	
CCN(Cc1ccccc1)C(=O)CN(Cc1ccccc1)C(c1ccccc1)c1cc2cc(C)ccc2nc1-c1ccccc1 (centres unmarked) [Compound 48]			4.1	
CCOC(=O)CN(Cc1ccccc1)C(c1ccccc1)c1cc2cc(-c3cccnc3)ccc2nc1-c1ccccc1 (centres unmarked) [Compound 152]				IC50 (M. Smegmatis ATCC607): 2510 nM; IC90 (ECO 25922): 14.2 µg/mL (≈ 25.2 µM)
CCOC(=O)CN(Cc1ccccc1)C(c1ccccc1)c1cc2cc(C)ccc2nc1-c1ccccc1 (centres unmarked) [Compound 150]				IC50 [1]: 39800 nM; IC50 (M. Smegmatis ATCC607): 398 nM
Cc1ccc2nc(-c3ccccc3)c(C(c3ccccc3)N(CC(=O)N3CCC(C)CC3)Cc3ccccc3)cc2c1 (centres unmarked) [Compound 67]	6.0		5.7	
COc1nc2ccc(Br)cc2cc1C(c1ccccc1)N(CC(=O)N1CCOCC1)Cc1ccccc1Cl (centres unmarked) [Compound 108]	5.9	14.9 (≈ 25 µM)		
CCN(CC)C(=O)CN(Cc1ccccc1)C(c1ccccc1)c1cc2cc(C)ccc2nc1-c1ccccc1 (centres unmarked) [Compound 47]				IC50 [1]: 6310 nM; IC50 (M. Smegmatis ATCC607): 316 nM
COc1nc2ccc(Br)cc2cc1C(c1ccccc1)N(CC(=O)N1CCOCC1)Cc1ccccn1 (centres unmarked) [Compound 110]	5.2			
CCOC(=O)CN(Cc1ccccc1)C(c1ccccc1)c1cc2cc(C#N)ccc2nc1OC (centres unmarked) [Compound 151]				melting point: 148 °C
O=C(CN(Cc1ccccc1)C(c1cc2ccccc2o1)c1cc2ccccc2nc1-c1ccccc1)N1CCSCC1 (centres unmarked) [Compound 58]	6.1			
COc1nc2ccc(Br)cc2c(Cl)c1C(c1ccccc1)N(C)CC(=O)N(C)C (centres unmarked) [Compound 15]	4.8			
